Tests used:
[1] = biological target: CYP2C9 (Homo sapiens, UniProt P11712); assay: Inhibition of CYP2C9 in pooled human liver microsomes at 10 uM pre-incubated for 5 mins before NADPH addition and measured after 10 mins by UPLC-MS/MS analysis relative to control; format: ADME
[2] = Cytotoxicity in human HepG2 cells assessed as inhibition of cell growth at 3 uM incubated for 72 hrs by CCK8 assay relative to control; format: cell-based; details: read-out: GI
[3] = Drug level in liver of Wistar rat at 10 mg/kg, po measured at 4 hrs by LC-MS/MS analysis; format: ADME, organism-based; details: read-out: Drug uptake
[4] = Volume of distribution at steady state in rat at 1 mg/kg, iv measured up to 24 hrs by LC-MS/MS analysis; format: ADME, organism-based; details: in vivo, read-out: Vdss
[5] = Ratio of dug level in liver to plasma of Wistar rat at 10 mg/kg, po measured at 4 hrs by LC-MS/MS analysis; format: ADME, organism-based
[6] = Cytotoxicity in human HepG2 cells assessed as inhibition of cell growth at 10 uM incubated for 72 hrs by CCK8 assay relative to control; format: cell-based; details: read-out: GI
[7] = Drug metabolism in human liver microsomes assessed as metabolic rate at 1 uM preincubated for 5 mins before NADPH addition and measured up to 30 mins by LC-MS/MS analysis; format: ADME, Microsome; details: 0.5 h
[8] = Drug level in plasma of Wistar rat at 10 mg/kg, po measured at 4 hrs by LC-MS/MS analysis; format: ADME, organism-based
[9] = AUC(last) in rat at 1 mg/kg, iv measured up to 24 hrs by LC-MS/MS analysis; format: ADME, organism-based; design: dose 1 mg/kg, route intravenous, time 0 - last; details: in vivo
[10] = Cmax in rat at 10 mg/kg, po measured up to 24 hrs by LC-MS/MS analysis; format: ADME, organism-based; design: dose 10 mg/kg, route oral; details: in vivo
[11] = Cytotoxicity in human HEK293 cells assessed as inhibition of cell growth at 10 uM incubated for 72 hrs by CCK8 assay relative to control; format: cell-based; details: read-out: GI
[12] = Oral bioavailability in rat at 10 mg/kg measured up to 24 hrs by LC-MS/MS analysis; format: ADME, organism-based; details: in vivo
[13] = biological target: CYP2D6 (Homo sapiens, UniProt P10635); assay: Inhibition of CYP2D6 in pooled human liver microsomes at 10 uM pre-incubated for 5 mins before NADPH addition and measured after 10 mins by UPLC-MS/MS analysis relative to control; format: ADME
[14] = Drug metabolism in rat liver microsomes assessed as metabolic rate at 1 uM preincubated for 5 mins before NADPH addition and measured up to 30 mins by LC-MS/MS analysis; format: ADME, Microsome; details: 0.5 h
[15] = Half life in rat at 1 mg/kg, iv measured up to 24 hrs by LC-MS/MS analysis; format: ADME, organism-based; details: in vivo
[16] = Cytotoxicity in human HuH7 cells assessed as inhibition of cell growth at 3 uM incubated for 72 hrs by CCK8 assay relative to control; format: cell-based, Huh-7; details: read-out: GI
[17] = biological target: CYP3A4 (Homo sapiens, UniProt P08684); assay: Inhibition of CYP3A4 in pooled human liver microsomes at 10 uM pre-incubated for 5 mins before NADPH addition and measured after 10 mins by UPLC-MS/MS analysis relative to control; format: ADME
[18] = Drug level in liver of Wistar rat at 10 mg/kg, po measured up to 8 hrs by LC-MS/MS analysis; format: ADME, organism-based; details: in vivo
[19] = Cytotoxicity in human HEK293 cells assessed as inhibition of cell growth at 3 uM incubated for 72 hrs by CCK8 assay relative to control; format: cell-based; details: read-out: GI
[20] = AUC (last) in rat at 10 mg/kg, po measured up to 24 hrs by LC-MS/MS analysis; format: ADME, organism-based; design: dose 10 mg/kg, time 0 - last, route oral; details: in vivo
[21] = Clearance in rat at 1 mg/kg, iv measured up to 24 hrs by LC-MS/MS analysis; format: ADME, organism-based; details: in vivo
[22] = Protein binding in human plasma; format: ADME, cell-free; details: read-out: PPB
[23] = AUC(last) in beagle dog at 1 mg/kg, iv measured up to 24 hrs by LC-MS/MS analysis; format: ADME, organism-based, Canis lupus familiaris; design: dose 1 mg/kg, route intravenous, time 0 - last; details: in vivo
[24] = AUC (last) in beagle dog at 30 mg/kg, po measured up to 24 hrs by LC-MS/MS analysis; format: ADME, organism-based, Canis lupus familiaris; design: dose 30 mg/kg, route oral, time 0 - last; details: in vivo
[25] = Half life in beagle dog at 1 mg/kg, iv measured up to 24 hrs by LC-MS/MS analysis; format: ADME, organism-based, Canis lupus familiaris; details: in vivo
[26] = AUC (last) in rat at 30 mg/kg, po measured up to 24 hrs by LC-MS/MS analysis; format: ADME, organism-based; design: dose 30 mg/kg, time 0 - last, route oral; details: in vivo
[27] = Cmax in rat at 100 mg/kg, po measured up to 24 hrs by LC-MS/MS analysis; format: ADME, organism-based; design: dose 100 mg/kg, route oral; details: in vivo
[28] = Tmax in beagle dog at 10 mg/kg, po measured up to 24 hrs by LC-MS/MS analysis; format: ADME, organism-based, Canis lupus familiaris; details: in vivo
[29] = AUC (last) in beagle dog at 10 mg/kg, po measured up to 24 hrs by LC-MS/MS analysis; format: ADME, organism-based, Canis lupus familiaris; design: dose 10 mg/kg, time 0 - last, route oral; details: in vivo
[30] = Volume of distribution at steady state in beagle dog at 1 mg/kg, iv measured up to 24 hrs by LC-MS/MS analysis; format: ADME, organism-based, Canis lupus familiaris; details: in vivo, read-out: Vdss
[31] = Cytotoxicity in human HuH7 cells assessed as inhibition of cell growth at 10 uM incubated for 72 hrs by CCK8 assay relative to control; format: cell-based, Huh-7; details: read-out: GI
[32] = AUC (last) in rat at 100 mg/kg, po measured up to 24 hrs by LC-MS/MS analysis; format: ADME, organism-based; design: dose 100 mg/kg, time 0 - last, route oral; details: in vivo
[33] = Cmax in beagle dog at 30 mg/kg, po measured up to 24 hrs by LC-MS/MS analysis; format: ADME, organism-based, Canis lupus familiaris; design: dose 30 mg/kg, route oral; details: in vivo
[34] = Clearance in beagle dog at 1 mg/kg, iv measured up to 24 hrs by LC-MS/MS analysis; format: ADME, organism-based, Canis lupus familiaris; details: in vivo
[35] = Cmax in rat at 30 mg/kg, po measured up to 24 hrs by LC-MS/MS analysis; format: ADME, organism-based; design: dose 30 mg/kg, route oral; details: in vivo
[36] = Cmax in beagle dog at 10 mg/kg, po measured up to 24 hrs by LC-MS/MS analysis; format: ADME, organism-based, Canis lupus familiaris; design: dose 10 mg/kg, route oral; details: in vivo
[37] = Cmax in beagle dog at 100 mg/kg, po measured up to 24 hrs by LC-MS/MS analysis; format: ADME, organism-based, Canis lupus familiaris; design: dose 100 mg/kg, route oral; details: in vivo
[38] = Tmax in rat at 30 mg/kg, po measured up to 24 hrs by LC-MS/MS analysis; format: ADME, organism-based; details: in vivo
[39] = Tmax in beagle dog at 100 mg/kg, po measured up to 24 hrs by LC-MS/MS analysis; format: ADME, organism-based, Canis lupus familiaris; details: in vivo
[40] = Tmax in beagle dog at 30 mg/kg, po measured up to 24 hrs by LC-MS/MS analysis; format: ADME, organism-based, Canis lupus familiaris; details: in vivo
[41] = Tmax in rat at 10 mg/kg, po measured up to 24 hrs by LC-MS/MS analysis; format: ADME, organism-based; details: in vivo
[42] = Tmax in rat at 100 mg/kg, po measured up to 24 hrs by LC-MS/MS analysis; format: ADME, organism-based; details: in vivo
[43] = Protein binding in rat plasma; format: ADME, cell-free; details: read-out: PPB
[44] = Oral bioavailability in beagle dog at 10 mg/kg measured up to 24 hrs by LC-MS/MS analysis; format: ADME, organism-based, Canis lupus familiaris; details: in vivo
[45] = AUC (last) in beagle dog at 100 mg/kg, po measured up to 24 hrs by LC-MS/MS analysis; format: ADME, organism-based, Canis lupus familiaris; design: dose 100 mg/kg, route oral, time 0 - last; details: in vivo
[46] = biological target: T1, Nonstructural protein 5A (Hepatitis C virus) (UniProt Q5L478); assay: Inhibition of NS5A in HCV genotype 2a infected in human Huh7.5/J6/JFH1/EMCVIRES/hRlucNeo cells assessed as inhibition of replicon levels at 1 uM incubated for 72 hrs by luciferase reporter gene assay; details: Hepatitis C virus subtype 2a
T1 sequence (whole entry): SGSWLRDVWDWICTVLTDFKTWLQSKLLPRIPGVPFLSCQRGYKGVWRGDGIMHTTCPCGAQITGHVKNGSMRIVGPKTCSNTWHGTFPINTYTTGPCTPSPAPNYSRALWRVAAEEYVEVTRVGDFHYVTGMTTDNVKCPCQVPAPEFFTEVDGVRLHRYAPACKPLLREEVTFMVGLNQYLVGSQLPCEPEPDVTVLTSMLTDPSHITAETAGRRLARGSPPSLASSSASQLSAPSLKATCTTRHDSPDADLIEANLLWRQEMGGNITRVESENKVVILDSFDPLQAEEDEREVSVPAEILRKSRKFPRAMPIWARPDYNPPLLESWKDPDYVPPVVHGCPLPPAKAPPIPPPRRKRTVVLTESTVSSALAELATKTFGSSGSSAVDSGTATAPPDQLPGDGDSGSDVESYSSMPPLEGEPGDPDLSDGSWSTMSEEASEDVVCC

Chain of CYP2D6 (P10635 whole entry): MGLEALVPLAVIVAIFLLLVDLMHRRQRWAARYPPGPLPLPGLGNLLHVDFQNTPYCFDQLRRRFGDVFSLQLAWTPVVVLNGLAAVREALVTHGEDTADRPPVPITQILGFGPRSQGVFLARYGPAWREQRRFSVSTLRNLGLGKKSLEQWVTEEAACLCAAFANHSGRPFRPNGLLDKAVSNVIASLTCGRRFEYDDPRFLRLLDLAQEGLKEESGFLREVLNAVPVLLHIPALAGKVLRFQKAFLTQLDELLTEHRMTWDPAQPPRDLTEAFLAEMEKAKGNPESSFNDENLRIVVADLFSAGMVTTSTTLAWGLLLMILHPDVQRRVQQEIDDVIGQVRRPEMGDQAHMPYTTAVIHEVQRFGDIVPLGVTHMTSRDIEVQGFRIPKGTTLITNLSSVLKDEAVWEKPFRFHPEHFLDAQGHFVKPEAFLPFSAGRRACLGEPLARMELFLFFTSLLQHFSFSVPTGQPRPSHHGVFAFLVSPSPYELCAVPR
Chain of CYP3A4 (P08684 whole entry): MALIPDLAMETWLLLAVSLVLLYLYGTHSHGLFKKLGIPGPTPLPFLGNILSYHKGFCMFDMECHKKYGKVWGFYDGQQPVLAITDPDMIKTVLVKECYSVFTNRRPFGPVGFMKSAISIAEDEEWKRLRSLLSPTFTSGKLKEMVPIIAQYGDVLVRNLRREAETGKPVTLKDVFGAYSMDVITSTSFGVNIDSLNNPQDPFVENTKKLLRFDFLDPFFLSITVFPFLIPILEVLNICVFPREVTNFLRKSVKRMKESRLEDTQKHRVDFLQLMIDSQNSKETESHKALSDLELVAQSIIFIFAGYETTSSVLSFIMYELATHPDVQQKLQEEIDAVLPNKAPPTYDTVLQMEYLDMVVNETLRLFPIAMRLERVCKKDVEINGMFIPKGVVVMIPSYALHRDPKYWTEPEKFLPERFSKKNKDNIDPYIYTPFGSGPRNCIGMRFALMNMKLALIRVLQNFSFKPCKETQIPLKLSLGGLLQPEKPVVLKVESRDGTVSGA
Chain of CYP2C9 (P11712 whole entry): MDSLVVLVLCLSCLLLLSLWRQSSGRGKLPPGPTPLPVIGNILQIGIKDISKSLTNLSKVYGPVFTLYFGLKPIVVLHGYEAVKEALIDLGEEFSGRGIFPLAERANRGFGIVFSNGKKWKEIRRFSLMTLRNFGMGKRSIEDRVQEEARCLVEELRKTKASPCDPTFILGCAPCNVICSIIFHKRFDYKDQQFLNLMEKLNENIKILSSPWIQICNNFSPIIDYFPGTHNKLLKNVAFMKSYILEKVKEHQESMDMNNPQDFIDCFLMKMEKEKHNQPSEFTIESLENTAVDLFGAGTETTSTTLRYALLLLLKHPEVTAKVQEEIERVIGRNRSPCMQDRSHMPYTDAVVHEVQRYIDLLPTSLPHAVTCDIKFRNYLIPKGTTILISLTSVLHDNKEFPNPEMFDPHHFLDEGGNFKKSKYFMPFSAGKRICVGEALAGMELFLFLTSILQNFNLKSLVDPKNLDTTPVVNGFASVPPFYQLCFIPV

## COC(=O)N[C@H](C(=O)N1CCC[C@H]1c1ncc(-c2ccc3c(c2)OCC(C)(C)COc2cc(-c4cnc([C@@H]5CCCN5C(=O)[C@@H](NC(=O)OC)C(C)C)[nH]4)ccc2-3)[nH]1)C(C)C
[1]
  inhibition at 10 min, 10 µM: 0%
[2]
  inhibition at 72 h, 3 µM: 8%
[3]
  concentration at 4 h: 7.6 µM
[4]
  Vd: 2.3 L/kg
[5]
  Kp at 4 h: 13
[6]
  inhibition at 72 h, 10 µM: 35%
[7]
  Drug metabolism: 0.02 nmol/min/mg
[8]
  concentration at 4 h: 0.62 µM
[9]
  AUC(0-t) at 24 h: 1.1 µM·h
[10]
  Cmax: 1.9 µM
[11]
  inhibition at 72 h, 10 µM: 33%
[12]
  bioavailability: 47%
[13]
  inhibition at 10 min, 10 µM: 17%
[14]
  Drug metabolism: 0.01 nmol/min/mg
[15]
  half-life: 2.1 h
[16]
  inhibition at 72 h, 3 µM: 4%
[17]
  inhibition at 10 min, 10 µM: 0%
[18]
  Drug uptake: Active
[19]
  inhibition at 72 h, 3 µM: 17%
[20]
  AUC(0-t) at 24 h: 5.2 µM·h
[21]
  clearance: 17 mL/min/kg

## COC(=O)N[C@H](C(=O)N1CCC[C@H]1c1ncc(-c2ccc3c(ccc4cc(-c5cnc([C@@H]6CCCN6C(=O)[C@@H](NC(=O)OC)C(C)C)[nH]5)sc43)c2)[nH]1)C(C)C
[22]
  fraction unbound: < 0.01
[1]
  inhibition at 10 min, 10 µM: 42%
[23]
  AUC(0-t) at 24 h: 3 µM·h
[2]
  inhibition at 72 h, 3 µM: 3%
[24]
  AUC(0-t) at 24 h: 86 µM·h
[25]
  half-life: 4 h
[26]
  AUC(0-t) at 24 h: 24 µM·h
[27]
  Cmax: 15 µM
[28]
  Tmax: 1 h
[3]
  concentration at 4 h: 8.5 µM
[29]
  AUC(0-t) at 24 h: 49 µM·h
[4]
  Vd: 2 L/kg
[30]
  Vd: 2 L/kg
[31]
  inhibition at 72 h, 10 µM: 14%
[5]
  Kp at 4 h: 14.5
[6]
  inhibition at 72 h, 10 µM: 22%
[32]
  AUC(0-t) at 24 h: 127 µM·h
[33]
  Cmax: 10 µM
[34]
  clearance: 6 mL/min/kg
[7]
  Drug metabolism: 0.04 nmol/min/mg
[8]
  concentration at 4 h: 0.6 µM
[9]
  AUC(0-t) at 24 h: 2 µM·h
[10]
  Cmax: 0.9 to 1 µM
[35]
  Cmax: 3 µM
[11]
  inhibition at 72 h, 10 µM: 36%
[12]
  bioavailability: 30%
[13]
  inhibition at 10 min, 10 µM: 12%
[14]
  Drug metabolism: 0.01 nmol/min/mg
[36]
  Cmax: 5 µM
[15]
  half-life: 2 h
[37]
  Cmax: 17 µM
[38]
  Tmax: 4 to 6 h
[16]
  inhibition at 72 h, 3 µM: 0%
[39]
  Tmax: 3 h
[17]
  inhibition at 10 min, 10 µM: 12%
[18]
  Drug uptake: Active
[40]
  Tmax: 4 h
[41]
  Tmax: 4 to 6 h
[42]
  Tmax: 4 to 6 h
[43]
  fraction unbound: < 0.01
[44]
  bioavailability: 100%
[19]
  inhibition at 72 h, 3 µM: 0%
[20]
  AUC(0-t) at 24 h: 4 to 6 µM·h
[21]
  clearance: 11 mL/min/kg
[45]
  AUC(0-t) at 24 h: 179 µM·h

## COC(=O)N[C@H](C(=O)N1CCC[C@H]1c1ncc(-c2ccc3c(ccc4sc(-c5cnc([C@@H]6CCCN6C(=O)[C@@H](NC(=O)OC)C(C)C)[nH]5)nc43)c2)[nH]1)C(C)C
[46]
  inhibition: 0%

— ChEMBL document CHEMBL4321845, “Discovery and Characterization of Potent Pan-Genotypic HCV NS5A Inhibitors Containing Novel Tricyclic Central Core Leading to Clinical Candidate” (J Med Chem, 2019)
